Like-named read-outs stand apart in the source and are kept apart here.
Assays:
PKa [1] = molecular target: T1, PKa (Homo sapiens, UniProt P03952); settings: competitive, reversible inhibitor; cited from earlier work
[2] = Stability in DMSO and aqueous media (LCMS observation); assay type: physicochemical; settings: protodeborylation observed by LCMS
FXIIa = molecular target: T2, FXIIa (Homo sapiens, UniProt P00748); assay: Isolated enzyme potency against FXIIa, preincubation time course; settings: for IC50: read-out: FXIIa IC50; for Inhibition of FXIIa activity (in words): time course experiments
T2 sequence (P00748 373-615 limits assumed): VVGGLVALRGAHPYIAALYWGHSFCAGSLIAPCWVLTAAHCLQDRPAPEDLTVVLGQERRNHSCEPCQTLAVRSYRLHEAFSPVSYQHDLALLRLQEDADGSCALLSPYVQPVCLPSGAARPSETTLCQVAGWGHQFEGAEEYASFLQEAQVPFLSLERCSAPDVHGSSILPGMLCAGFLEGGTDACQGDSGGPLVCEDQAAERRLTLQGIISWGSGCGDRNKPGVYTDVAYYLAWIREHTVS

plasma kallikrein (PKa) = plasma kallikrein (PKa) (Homo sapiens, UniProt P03952); assay: Isolated enzyme potency against PKa, IC50 after enzyme/inhibitor preincubation time course; settings: for Inhibition of PKa (in words): preincubation time course
plasma kallikrein (PKa), sequence (P03952 391-638 limits assumed): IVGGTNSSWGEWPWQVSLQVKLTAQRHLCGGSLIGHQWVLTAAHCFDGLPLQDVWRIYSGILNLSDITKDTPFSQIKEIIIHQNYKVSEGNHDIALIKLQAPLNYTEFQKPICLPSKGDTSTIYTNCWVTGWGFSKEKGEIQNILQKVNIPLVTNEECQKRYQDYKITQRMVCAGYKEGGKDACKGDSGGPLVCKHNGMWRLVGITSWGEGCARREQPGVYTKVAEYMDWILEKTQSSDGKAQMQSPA
plasma kallikrein (PKa), sequence (P03952 20-390 partner limits assumed): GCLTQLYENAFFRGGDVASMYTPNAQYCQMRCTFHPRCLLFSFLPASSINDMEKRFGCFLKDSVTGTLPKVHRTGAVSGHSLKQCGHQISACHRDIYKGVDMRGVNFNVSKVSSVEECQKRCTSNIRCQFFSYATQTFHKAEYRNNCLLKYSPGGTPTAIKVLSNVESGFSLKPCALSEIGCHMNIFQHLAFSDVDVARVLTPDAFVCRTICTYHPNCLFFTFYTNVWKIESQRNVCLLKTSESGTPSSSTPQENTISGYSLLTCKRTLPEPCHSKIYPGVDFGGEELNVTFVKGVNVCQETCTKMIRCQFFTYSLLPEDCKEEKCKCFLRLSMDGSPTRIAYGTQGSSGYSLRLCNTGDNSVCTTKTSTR

[3] = NMR stability study of pinacol boronate in PBS buffer; assay type: physicochemical; settings: pH7.4 phosphate buffer (D2O)
Procedure: Molecular docking experiments were conducted to visualize the potential binding mode of 20. However, it soon became apparent that the pinacol boronate group was too large to fit into the Ser195 subpocket. Having previously experienced hydrolysis of the pinacol boronate during purification, model substrate 17b was used to study the stability of the pinacol boronate in PBS buffer by NMR (see Supporting Information Figure S1).

FXIa = FXIa (Homo sapiens, UniProt P03951); assay: Time-dependent potency determination against FXIa; assay type: biochemical
FXIa, sequence (P03951 388-625 limits assumed): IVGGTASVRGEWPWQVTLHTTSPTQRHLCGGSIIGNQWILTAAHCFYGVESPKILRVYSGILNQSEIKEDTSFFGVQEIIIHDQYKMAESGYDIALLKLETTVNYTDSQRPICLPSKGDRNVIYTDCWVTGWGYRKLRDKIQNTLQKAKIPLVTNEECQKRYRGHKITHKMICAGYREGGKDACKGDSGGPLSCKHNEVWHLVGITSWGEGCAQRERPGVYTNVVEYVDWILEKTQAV
FXIa, sequence (P03951 19-387 partner limits assumed): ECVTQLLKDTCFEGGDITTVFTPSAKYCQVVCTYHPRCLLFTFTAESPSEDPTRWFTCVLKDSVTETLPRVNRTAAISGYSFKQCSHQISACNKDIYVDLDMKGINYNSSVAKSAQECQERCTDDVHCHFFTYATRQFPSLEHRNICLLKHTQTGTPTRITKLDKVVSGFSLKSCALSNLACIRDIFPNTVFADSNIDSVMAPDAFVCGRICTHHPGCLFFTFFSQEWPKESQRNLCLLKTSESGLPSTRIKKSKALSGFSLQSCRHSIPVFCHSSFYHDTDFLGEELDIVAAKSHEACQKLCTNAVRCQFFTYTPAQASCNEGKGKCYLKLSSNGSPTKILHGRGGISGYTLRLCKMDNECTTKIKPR
Excerpt: S5: Pharmacology: Material and Methods :

Plasmin = Plasmin (Homo sapiens, UniProt P00747); assay: Time-dependent potency determination against plasmin
Plasmin, sequence (P00747 581-810 limits assumed, species assumed): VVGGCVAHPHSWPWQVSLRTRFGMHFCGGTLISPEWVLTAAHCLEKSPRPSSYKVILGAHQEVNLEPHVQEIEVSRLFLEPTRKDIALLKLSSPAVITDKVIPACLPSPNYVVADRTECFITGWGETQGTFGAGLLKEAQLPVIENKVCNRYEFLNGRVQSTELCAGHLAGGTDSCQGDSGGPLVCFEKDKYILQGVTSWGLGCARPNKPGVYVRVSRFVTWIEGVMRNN
Plasmin, sequence (P00747 97-580 partner limits assumed, species assumed): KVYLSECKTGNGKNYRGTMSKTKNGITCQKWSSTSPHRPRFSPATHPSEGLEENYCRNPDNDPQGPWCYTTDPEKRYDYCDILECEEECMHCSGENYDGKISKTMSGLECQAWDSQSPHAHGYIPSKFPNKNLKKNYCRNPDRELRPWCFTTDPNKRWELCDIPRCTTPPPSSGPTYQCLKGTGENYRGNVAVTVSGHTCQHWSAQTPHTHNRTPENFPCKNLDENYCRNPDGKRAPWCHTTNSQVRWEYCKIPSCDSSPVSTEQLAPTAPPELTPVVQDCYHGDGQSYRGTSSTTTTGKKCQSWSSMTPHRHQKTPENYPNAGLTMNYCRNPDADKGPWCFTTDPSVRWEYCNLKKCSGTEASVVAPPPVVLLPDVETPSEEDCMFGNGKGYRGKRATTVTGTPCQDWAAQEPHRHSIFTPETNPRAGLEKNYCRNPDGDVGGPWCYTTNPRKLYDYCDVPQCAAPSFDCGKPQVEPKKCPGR

Thrombin = Thrombin (Homo sapiens, UniProt P00734); assay: Time-dependent potency determination against thrombin
PKa [4] = molecular target: T1, PKa; assay: Compound dissociation assay (jump dilution); settings: 62.5-fold dilution after 10 min preincubation; monitored over 600 s with fluorogenic substrate
Trypsin = assay: Time-dependent potency determination against trypsin; settings: read-out: Trypsin IC50
[5] = molecular target: phosophodiesterase 4 (PDE4) enzyme; design: method as in PMID 19303290; settings: read-out: potency; cited from earlier work
[6] = design: method as in PMID 34282650; settings: 150 mg daily dose, clinical studies; cited from earlier work
[7] = read-out: PKa IC50, 5 min preincubation
[8] = read-out: PKa IC50, 60 min preincubation
[9] = Plasmin IC50, 1 min preincubation
[10] = Plasmin IC50, 10 min preincubation
[11] = Plasmin IC50, 60 min preincubation
[12] = read-out: Thrombin IC50, 10 min preincubation
[13] = read-out: Thrombin IC50, 60 min preincubation
[14] = read-out: PKa IC50, 1 min preincubation
[15] = read-out: PKa IC50, 10 min preincubation

T1 sequence (P03952 391-638 limits assumed): as the sequence (P03952 391-638 limits assumed) above
T1 sequence (P03952 20-390 partner limits assumed): as the sequence (P03952 20-390 partner limits assumed) above

Row | IC50 (plasma kallikrein (PKa); [8]) [nM] | IC50 (FXIa; 1 min preincubation) [µM] | IC50 (FXIa; 10 min preincubation) [µM] | IC50 (FXIa; 60 min preincubation) [µM] | IC50 (Plasmin; [9]) [µM] | IC50 (Plasmin; [10]) [µM] | IC50 (Plasmin; [11]) [µM] | IC50 (Thrombin) [µM] | IC50 (Thrombin; [12]) [µM] | IC50 (Thrombin; [13]) [µM] | IC50 (plasma kallikrein (PKa); [14]) [nM] | IC50 (plasma kallikrein (PKa); [15]) [nM] | Molecule | other results
1 | > 400000 |  |  |  |  |  |  |  |  |  |  |  | O=C(NC(B(O)O)c1cccc(Cl)c1)c1cnn(Cc2ccccc2)c1 (centres unmarked) [Compound 18] | Stability in DMSO / aqueous media [2]: instability in DMSO and aqueous media; IC50 (FXIIa; 5 min preincubation): > 400 µM; IC50 (FXIIa; 60 min preincubation): > 400 µM; Inhibition of FXIIa activity (in words) (FXIIa): no activity; Inhibition of PKa (in words) (plasma kallikrein (PKa)): no activity; IC50 (plasma kallikrein (PKa); [7]): > 400000 nM
2 |  | > 40 | > 40 | > 40 | > 40 | > 40 | > 40 | > 40 | > 40 | > 40 |  |  | CC1(C)OB(C(NC(=O)c2cnn(Cc3ccc(Cn4cccn4)cc3)c2)c2cccc(Cl)c2)OC1(C)C (centres unmarked) [Compound 19] | 
3 | 0.3 | 18.8 | 16.5 | 12.2 | 22 | 19.8 | 12.1 | > 40 | > 40 | > 40 | 66 | 6.9 | Cc1ccc(C(NC(=O)c2cnn(Cc3ccc(Cn4cccn4)cc3)c2)B2OC(C)(C)C(C)(C)O2)c(F)c1 (centres unmarked) [Compound 20] | Inhibitor dissociation from PKa (PKa [4]): no apparent reversibility; Inhibition of FXIIa activity (in words) (FXIIa): no effect; IC50 (Trypsin; 1 min preincubation): > 40 µM; IC50 (Trypsin; 10 min preincubation): > 40 µM; IC50 (Trypsin; 60 min preincubation): > 40 µM; IC50 (plasma kallikrein (PKa)): 0.33 nM; IC50 (plasma kallikrein (PKa); read-out: PKa IC50, 2 h, extended time course): 0.29 nM; IC50 (plasma kallikrein (PKa); read-out: PKa IC50, 24 h): 0.07 nM
4 | > 40000 | > 40 | > 40 | > 40 | > 40 | > 40 | > 40 | > 40 | > 40 | > 40 | > 40000 | > 40000 | O=C(NCc1cccc(Cl)c1)c1cnn(Cc2ccc(Cn3cccn3)cc2)c1 [Compound 24] | Inhibitor dissociation from PKa (PKa [4]): rapid dissociation; IC50 (Trypsin; 1 min preincubation): > 40 µM; IC50 (Trypsin; 10 min preincubation): > 40 µM; IC50 (Trypsin; 60 min preincubation): > 40 µM; Inhibition of PKa (in words) (plasma kallikrein (PKa)): no PKa inhibition
5 | 278 |  |  |  |  |  |  |  |  |  | 270 | 284 | O=C(NCc1cccc(Cl)c1)c1cnn(Cc2ccc(Cn3ccccc3=O)cc2)c1 [Compound 25] | 
6 | 196 | > 40 | > 40 | > 40 | > 40 | > 40 | > 40 | > 40 | > 40 | > 40 | 199 | 203 | Cc1ccc(CNC(=O)c2cnn(Cc3ccc(Cn4cccn4)cc3)c2)c(F)c1 [Compound 26] | Inhibitor dissociation from PKa (PKa [4]): rapid dissociation; IC50 (Trypsin; 1 min preincubation): > 40 µM; IC50 (Trypsin; 10 min preincubation): > 40 µM; IC50 (Trypsin; 60 min preincubation): > 40 µM
7 | 35 |  |  |  |  |  |  |  |  |  | 37 | 37 | Cc1ccc(CNC(=O)c2cnn(Cc3ccc(Cn4ccccc4=O)cc3)c2)c(F)c1 [Compound 27] | 
8 | > 40000 |  |  |  |  |  |  |  |  |  | > 40000 | > 40000 | O=C(/C=C/c1cccc(Cl)c1)c1cnn(Cc2ccc(Cn3cccn3)cc2)c1 [Compound 29] | 
9 |  | > 40 | > 40 | > 40 | > 40 | > 40 | > 40 | > 40 | > 40 | > 40 |  |  | CC1(C)OB(C(CC(=O)c2cnn(Cc3ccc(Cn4cccn4)cc3)c2)c2cccc(Cl)c2)OC1(C)C (centres unmarked) [Compound 31] | 
10 |  | > 40 | > 40 | > 40 | > 40 | > 40 | > 40 | > 40 | > 40 | > 40 |  |  | Cc1ccc(C(CC(=O)c2cnn(Cc3ccc(Cn4cccn4)cc3)c2)B2OC(C)(C)C(C)(C)O2)c(F)c1 (centres unmarked) [Compound 32] | 

The next lines start with the molecule.

Row | Molecule | IC50 (plasma kallikrein (PKa); [8]) [nM] | IC50 (FXIa; 1 min preincubation) [µM] | IC50 (FXIa; 10 min preincubation) [µM] | IC50 (FXIa; 60 min preincubation) [µM] | IC50 (Plasmin; [9]) [µM] | IC50 (Plasmin; [10]) [µM] | IC50 (Plasmin; [11]) [µM] | IC50 (Thrombin) [µM] | IC50 (Thrombin; [12]) [µM] | IC50 (Thrombin; [13]) [µM] | IC50 (plasma kallikrein (PKa); [14]) [nM] | IC50 (plasma kallikrein (PKa); [15]) [nM] | other results
11 | Cc1cc(N)nc(C)c1CNC(=O)c1cnn(Cc2ccc(Cn3cccn3)cc2)c1 [Compound 11] |  |  |  |  |  |  |  |  |  |  |  |  | IC50 (PKa [1]): 0.002 µM
12 | CC1(C)OB(C(N)c2cccc(Cl)c2)OC1(C)C.Cl (centres unmarked) [Compound 15a] | > 400000 |  |  |  |  |  |  |  |  |  |  |  | Stability in DMSO / aqueous media [2]: unstable over time in DMSO; IC50 (FXIIa; 5 min preincubation): > 400 µM; IC50 (FXIIa; 60 min preincubation): > 400 µM; Inhibition of PKa (in words) (plasma kallikrein (PKa)): no activity; IC50 (plasma kallikrein (PKa); [7]): > 400000 nM
13 | CC1(C)OB(C(NC(=O)c2cnn(Cc3ccccc3)c2)c2cccc(Cl)c2)OC1(C)C (centres unmarked) [Compound 17a] |  |  |  |  |  |  |  |  |  |  |  |  | IC50 (FXIIa; 5 min preincubation): > 400 µM; IC50 (FXIIa; 60 min preincubation): > 400 µM
14 | Cc1ccc(C(NC(=O)c2cnn(Cc3ccccc3)c2)B2OC(C)(C)C(C)(C)O2)c(F)c1 (centres unmarked) [Compound 17b] |  |  |  |  |  |  |  |  |  |  |  |  | IC50 (FXIIa; 5 min preincubation): > 400 µM; IC50 (FXIIa; 60 min preincubation): > 400 µM; Stability of the pinacol boronate in PBS buffer by NMR [3]: rapidly hydrolyzed
15 | Cc1ccc(C(NC(=O)c2cnn(Cc3ccc(Cn4ccccc4=O)cc3)c2)B2OC(C)(C)C(C)(C)O2)c(F)c1 (centres unmarked) [Compound 21] | 1.9 |  |  |  |  |  |  |  |  |  | 94 | 17 | 
16 | N#Cc1ccc(Oc2ccc3c(c2)COB3O)cc1 [Crisaborole] |  |  |  |  |  |  |  |  |  |  |  |  | IC50 [5]: 0.49 µM
17 | N#Cc1cccc([C@@H](NCC2CC2)c2ccc(F)c(NC(=O)c3cc(C(F)(F)F)nn3-c3cccc(CN)c3)c2)c1 [berotralstat] |  |  |  |  |  |  |  |  |  |  |  |  | Efficacy as an oral prophylactic for HAE [6]: efficacious
18 | D-Phe-Pro-Arg-chloromethylketone [Compound 23, reference compound] |  | > 40 | > 40 | > 40 |  |  |  |  |  |  |  |  | IC50 (Plasmin; read-out: Plasmin IC50, 1 min preincubation): 3.64 µM; IC50 (Plasmin; read-out: Plasmin IC50, 10 min preincubation): 1.22 µM; IC50 (Plasmin; read-out: Plasmin IC50, 60 min preincubation): 0.248 µM

Reference: publication PMC11017388 (ACS Medicinal Chemistry Letters, 2024)
